Data: patent US8680275B2, “Fused heterocyclic compounds as orexin receptor modulators” (Janssen Pharmaceutica NV, priority 2009, dated 2014)
Like-named read-outs stand apart in the source and are kept apart here.

Key:
human orexin 1 receptor = human orexin 1 receptor (Homo sapiens (Human), UniProt O43613); test: Human orexin 1 receptor radioligand binding ([3H]-SB674042 competition); details: read-out: OR-1 Ki
In short: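 CHO cells stably expressing human OX1R incubated 60 min at room temperature with [3H]-SB674042 and compounds (7 concentrations, 0.1 nM–10 μM; DMSO ≤0.1%) in PBS. Nonspecific binding defined with 10 μM of a reference urea antagonist; bound radioactivity measured by filtration and scintillation counting.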

human orexin-2 receptor = human orexin-2 receptor (Homo sapiens (Human), UniProt O43614); test: Human orexin 2 receptor radioligand binding ([3H]-EMPA competition); details: HEK293 cells stably expressing human orexin-2 receptor; [3H]-EMPA 5 nM final; read-out: OR-2 Ki
In short: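 Competition binding on HEK293 cells stably expressing human orexin-2 receptor, using 5 nM final [3H]-EMPA in PBS, compounds 0.1 nM to 10 μM (DMSO ≤0.1%). 60 min at room temperature, then filtration and scintillation counting; nonspecific binding defined with 10 μM of a reference antagonist.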

[1] = CHO cells stably expressing human orexin 1 receptor, [3H]-SB674042 4 nM final

Sequence of human orexin 1 receptor (O43613 whole entry): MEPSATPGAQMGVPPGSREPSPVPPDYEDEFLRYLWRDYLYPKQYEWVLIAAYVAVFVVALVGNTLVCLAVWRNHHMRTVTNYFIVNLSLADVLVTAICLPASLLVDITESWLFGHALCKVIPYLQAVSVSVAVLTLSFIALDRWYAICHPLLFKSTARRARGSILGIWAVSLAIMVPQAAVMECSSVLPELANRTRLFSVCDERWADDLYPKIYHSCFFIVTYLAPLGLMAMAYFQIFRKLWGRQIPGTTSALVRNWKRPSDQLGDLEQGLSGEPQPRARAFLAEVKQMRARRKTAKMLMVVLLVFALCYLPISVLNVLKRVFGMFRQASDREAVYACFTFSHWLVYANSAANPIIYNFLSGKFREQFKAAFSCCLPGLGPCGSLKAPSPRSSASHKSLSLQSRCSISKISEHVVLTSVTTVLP
Sequence of human orexin-2 receptor (O43614 whole entry): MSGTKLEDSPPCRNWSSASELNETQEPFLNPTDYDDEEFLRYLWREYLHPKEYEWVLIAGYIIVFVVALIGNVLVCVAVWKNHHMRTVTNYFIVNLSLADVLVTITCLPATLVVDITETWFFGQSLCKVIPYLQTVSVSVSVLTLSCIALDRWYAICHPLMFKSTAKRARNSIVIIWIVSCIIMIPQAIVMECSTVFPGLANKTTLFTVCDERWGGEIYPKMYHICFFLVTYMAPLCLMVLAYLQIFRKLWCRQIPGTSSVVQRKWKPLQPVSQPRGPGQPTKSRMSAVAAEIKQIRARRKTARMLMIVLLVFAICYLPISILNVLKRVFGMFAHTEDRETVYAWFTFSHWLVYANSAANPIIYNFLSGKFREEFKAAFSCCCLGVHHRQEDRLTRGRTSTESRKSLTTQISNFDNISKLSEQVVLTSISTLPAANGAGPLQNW

Compound	Ki (human orexin 1 receptor; [1]) [nM]	Ki (human orexin-2 receptor) [nM]	Ki (human orexin 1 receptor) [nM]
COc1ccc(-n2nccn2)c(C(=O)N2CC[C@H]3CN(c4cc(C(F)(F)F)ccn4)[C@H]3C2)c1 [Example 140, (1R,6S)-3-{[5-Methoxy-2-(2H-1,2,3-triazol-2-yl)phenyl]carbonyl}-8-[4-(trifluoromethyl)pyridin-2-yl]-3,8-diazabicyclo[4.2.0]octane]	1070	70	
Cc1cc(C)nc(N2C[C@@H]3CCN(C(=O)c4ccc(C(F)(F)F)nc4-n4ccnn4)C[C@@H]32)n1 [Example 159, (1R,6S)-8-(4,6-Dimethylpyrimidin-2-yl)-3-{[2-(1H-1,2,3-triazol-1-yl)-6-(trifluoromethyl)pyridin-3-yl]carbonyl}-3,8-diazabicyclo[4.2.0]octane]	10000	540	
Cc1cc(C)nc(N2C[C@@H]3CCN(C(=O)c4cc(F)ccc4-c4cncnc4)C[C@@H]32)n1 [Example 165, (1R,6S)-8-(4,6-Dimethylpyrimidin-2-yl)-3-[(5-fluoro-2-pyrimidin-5-ylphenyl)carbonyl]-3,8-diazabicyclo[4.2.0]octane]	10000	550	
Cc1cnc(N2C[C@@H]3CCN(C(=O)c4c(F)cccc4-n4nccn4)C[C@@H]32)cn1 [Example 101, (1R,6S)-3-{[2-Fluoro-6-(2H-1,2,3-triazol-2-yl)phenyl]carbonyl}-8-(5-methylpyrazin-2-yl)-3,8-diazabicyclo[4.2.0]octane]	6600	190	
O=C(c1cc(F)ccc1-n1nccn1)N1CC[C@H]2CN(c3cc(NC4CC4)ncn3)[C@H]2C1 [Example 194, N-Cyclopropyl-6-[(1R,6S)-3-{[5-fluoro-2-(2H-1,2,3-triazol-2-yl)phenyl]carbonyl}-3,8-diazabicyclo[4.2.0]oct-8-yl]pyrimidin-4-amine]	10000	650	
Cc1cnc(N2C[C@@H]3CCN(C(=O)c4ccc(F)cc4-n4nccn4)C[C@@H]32)cn1 [Example 102, (1R,6S)-3-{[4-Fluoro-2-(2H-1,2,3-triazol-2-yl)phenyl]carbonyl}-8-(5-methylpyrazin-2-yl)-3,8-diazabicyclo[4.2.0]octane]	10000	420	
CN(C)c1ccnc(N2C[C@@H]3CCN(C(=O)c4cccc(F)c4-n4nccn4)C[C@@H]32)c1 [Example 144, 2-[(1R,6S)-3-{[3-Fluoro-2-(2H-1,2,3-triazol-2-yl)phenyl]carbonyl}-3,8-diazabicyclo[4.2.0]oct-8-yl]-N,N-dimethylpyridin-4-amine]	10000	2810	
COc1ccc(C(=O)N2CC[C@H]3CN(c4nc(C)cc(C)n4)[C@H]3C2)c(-n2ccnn2)n1 [Example 163, (1R,6S)-8-(4,6-Dimethylpyrimidin-2-yl)-3-{[6-methoxy-2-(1H-1,2,3-triazol-1-yl)pyridin-3-yl]carbonyl}-3,8-diazabicyclo[4.2.0]octane]	10000	700	
Cc1cc(C)nc(N2C[C@@H]3CCN(C(=O)c4ccccc4-n4cccc4)C[C@@H]32)n1 [Example 7, (1R,6S)[8-(4,6-Dimethyl-pyrimidin-2-yl)-3,8-diaza-bicyclo[4.2.0]oct-3-yl]-(2-pyrrol-1-yl-phenyl)-methanone]	371	15	
Cc1cncc(N2C[C@@H]3CCN(C(=O)c4ccc(F)cc4-n4nccn4)C[C@@H]32)n1 [Example 114, (1R,6S)-3-{[4-Fluoro-2-(2H-1,2,3-triazol-2-yl)phenyl]carbonyl}-8-(6-methylpyrazin-2-yl)-3,8-diazabicyclo[4.2.0]octane]		494	10000
Cc1cc(C)nc(N2C[C@@H]3CCN(C(=O)c4c(F)cccc4-n4nccn4)C[C@@H]32)n1 [Example 29, (1R,6S)-[8-(4,6-Dimethyl-pyrimidin-2-yl)-3,8-diaza-bicyclo[4.2.0]oct-3-yl]-(2-fluoro-6-[1,2,3]triazol-2-yl-phenyl)-methanone]	325	11	
COc1ccc(-n2nccn2)c(C(=O)N2CC[C@H]3CN(c4cc(C)cc(C)n4)[C@H]3C2)c1 [Example 151, (1R,6S)-8-(4,6-Dimethylpyridin-2-yl)-3-{[5-methoxy-2-(2H-1,2,3-triazol-2-yl)phenyl]carbonyl}-3,8-diazabicyclo[4.2.0]octane]	341	17	
Cc1cc(C)nc(N2C[C@@H]3CCN(C(=O)c4cc(F)ccc4Br)C[C@@H]32)n1 [Example 164, (1R,6S)-3-[(2-Bromo-5-fluorophenyl)carbonyl]-8-(4,6-dimethylpyrimidin-2-yl)-3,8-diazabicyclo[4.2.0]octane]	3900	190	
CN(C)c1nc(N2C[C@@H]3CCN(C(=O)c4ccccc4-n4nccn4)C[C@@H]32)cc(C(F)(F)F)n1 [Example 36, (1R,6S)-[8-(2-Dimethylamino-6-trifluoromethyl-pyrimidin-4-yl)-3,8-diaza-bicyclo[4.2.0]oct-3-yl]-(2-[1,2,3]triazol-2-yl-phenyl)-methanone]	11	5	

Now from value to compound, other results behind:

Ki (human orexin 1 receptor; [1]) [nM]	Ki (human orexin-2 receptor) [nM]	Compound	Ki (human orexin 1 receptor) [nM]
78	144	O=C(c1ccccc1Br)N1CC[C@H]2CN(c3cnc4ccccc4n3)[C@H]2C1 [Example 13, (1R,6S)(2-Bromo-phenyl)-(8-quinoxalin-2-yl-3,8-diaza-bicyclo[4.2.0]oct-3-yl)-methanone]	
432	501	Cc1nc(C(=O)N2CC3CN(c4cnc5ccccc5n4)C3C2)c(-c2ccccc2F)s1 (stereo not drawn) [Example 51, 2-(3-{[5-(2-Fluorophenyl)-2-methyl-1,3-thiazol-4-yl]carbonyl}-3,6-diazabicyclo[3.2.0]hept-6-yl)quinoxaline]	
473	29	Cc1cc(C)nc(N2C[C@@H]3CCN(C(=O)c4c(F)cccc4-c4ncccn4)C[C@@H]32)n1 [Example 22, (1R,6S)[8-(4,6-Dimethyl-pyrimidin-2-yl)-3,8-diaza-bicyclo[4.2.0]oct-3-yl]-(2-fluoro-6-pyrimidin-2-yl-phenyl)-methanone]	
96	114	O=C(c1ccccc1-c1cccnc1)N1CC[C@H]2CN(c3cnc4ccccc4n3)[C@H]2C1 [Example 14, (1R,6S)(2-Pyridin-3-yl-phenyl)-(8-quinoxalin-2-yl-3,8-diaza-bicyclo[4.2.0]oct-3-yl)-methanone]	
330	21	Cc1cc(C)nc(N2C[C@@H]3CCN(C(=O)c4ccccc4-c4ncccn4)C[C@@H]32)n1 [Example 28, (1R,6S)-[8-(4,6-Dimethyl-pyrimidin-2-yl)-3,8-diaza-bicyclo[4.2.0]oct-3-yl]-(2-pyrimidin-2-yl-phenyl)-methanone]	
23	28	O=C(c1cccc(F)c1-n1nccn1)N1CC[C@H]2CN(c3cnc4ccccc4n3)[C@H]2C1 [Example 116, 2-[(1R,6S)-3-{[3-Fluoro-2-(2H-1,2,3-triazol-2-yl)phenyl]carbonyl}-3,8-diazabicyclo[4.2.0]oct-8-yl]quinoxaline]	
143	140	O=C(c1ccccc1-c1ccccc1)N1CCC2CN(c3nc4ccccc4o3)C2C1 (stereo not drawn) [Example 11, (8-Benzooxazol-2-yl-3,8-diaza-bicyclo[4.2.0]oct-3-yl)-biphenyl-2-yl-methanone]	
